# Source: paper PMC9181982, “Biphenyl Ether Analogs Containing Pomalidomide as Small-Molecule Inhibitors of the Programmed Cell Death-1/Programmed Cell Death-Ligand 1 Interaction” (Molecules, 2022)
# Entries after “also recorded” stand apart in the source; their conditions may differ.
# Tests used:
# [1] = target: T1, PD-1/PD-L1 complex (Homo sapiens, UniProt Q9NZQ7); assay: HTRF (homogeneous time-resolved fluorescence) PD-1/PD-L1 binding assay (Cis-Bio); details: for inhibition at 0.5 µM: 0.5 µM ligand, read-out: HTRF: Percentage of the Dissociated PD-1/PD-L1 Complex, 0.5 µM Ligand Conc.; for inhibition at 0.5 µM / inhibition at 5 µM: 5 nM hPD-L1, 50 nM hPD-1; for inhibition at 5 µM: 5 µM ligand, read-out: HTRF: Percentage of the Dissociated PD-1/PD-L1 Complex, 5 µM Ligand Conc.; for IC50: six ligand concentrations, two dilution series
# T1 construct: purchased Cis-Bio
# T1 sequence (Q9NZQ7 19-238 limits assumed, one chain of several): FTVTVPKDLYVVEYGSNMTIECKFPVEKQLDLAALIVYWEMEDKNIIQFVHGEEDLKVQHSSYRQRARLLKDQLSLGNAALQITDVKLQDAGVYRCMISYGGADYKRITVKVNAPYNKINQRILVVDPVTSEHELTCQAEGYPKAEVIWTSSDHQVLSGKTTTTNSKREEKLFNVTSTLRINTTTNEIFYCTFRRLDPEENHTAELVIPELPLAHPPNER
# Protocol: To validate the activity toward PD-L1 of our compounds, we carried out an HTRF (homogeneous time-resolved fluorescence) experiment at two concentrations of the ligand (5 µM and 0.5 µM) (Table 1).
# HTRF was carried out using a certified Cis-Bio assay according to the manufacturer’s guidelines. The experiments were carried out at 5 nM of h-L1 and 50 nM of hPD-1 in the final formulation at the 20 µL final volume in the well. To determine the half maximal inhibitory concentrations (IC50) of the tested compounds, the measurements were carried out on two individual dilution series unless stated otherwise. After mixing all the components according to the Cis-Bio protocol, the plate was left for 2 h incubation at room temperature followed by the TR-FRET measurement on a Tecan Spark 20M. […] The collected data was background-subtracted from the negative control, normalized on the positive control, averaged, and fitted with the normalized Hill’s equation to determine the IC50 value using Mathematica 12 (Princeton, NJ, USA).
# [2] = target: T2, PD-L1 protein (Homo sapiens, UniProt Q9NZQ7); assay: 1H NMR binding analysis, PD-L1 protein titrated with ligand; details: for Protein precipitation during NMR titration: 1H NMR titration, compound 6 at protein–ligand ratio 1:10; for Binding to PD-L1 by 1H NMR titration: PBS pH 7.4, 300 K, protein–ligand ratios up to 1:10
# T2 construct: PD-L1 gene (amino acids 18–239); made in house; host or cells: E. coli BL21
# T2 sequence (Q9NZQ7 18-239): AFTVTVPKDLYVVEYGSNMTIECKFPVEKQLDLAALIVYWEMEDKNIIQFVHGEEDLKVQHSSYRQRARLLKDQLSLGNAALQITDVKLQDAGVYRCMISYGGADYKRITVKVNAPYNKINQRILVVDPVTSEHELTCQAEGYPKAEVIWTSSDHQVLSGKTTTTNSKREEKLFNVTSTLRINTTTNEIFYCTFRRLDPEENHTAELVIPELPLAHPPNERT
# Protocol: Apart from the HTRF assay, we performed the NMR [33, 34] binding analysis by recording the ^1H spectrum of the PD-L1 protein titrated with compound 4 (Figure 1).
# The E. coli strain BL21 was transformed with a pET-21b plasmid carrying the PD-L1 gene (amino acids 18–239). The bacteria were cultured in LB at 37 °C until OD600nm of 0, 6 when the recombinant protein production was induced with 1 mM IPTG. The protein production continued overnight. The inclusion bodies were collected by centrifugation, washed twice with 50 mM Tris HCl, pH 8.0, containing 200 mM NaCl, 10 mM EDTA, 10 mM 2-mercaptoethanol, and 0.5% Triton X-100, followed by a single wash with the same buffer but with no Triton X-100. The washed inclusion bodies were resuspended overnight in 50 mM Tris HCl, pH 8.0, 6 M GuHCl, 200 mM NaCl, and 10 mM 2-mercaptoethanol and clarified with centrifugation. Refolding of PD-L1 was performed by dropwise dilution into 0.1 M Tris HCl, pH 8.0, containing 1 M L-arginine hydrochloride, 0.25 mM oxidized glutathione, and 0.25 mM reduced glutathione. The refolded protein was dialyzed three times against 10 mM Tris HCl, pH 8.0, containing 20 mM NaCl and purified by size exclusion chromatography using Superdex 75 and a dialysis buffer. The quality of the refolded protein was evaluated by SDS-PAGE and NMR.
# NMR spectra were recorded in PBS, pH 7.4, containing 10% (v/v) of D2O added to the samples to provide the lock signal. Water suppression was carried out using the WATERGATE sequence. All the spectra were recorded at 300 K using a Bruker Avance 600 MHz spectrometer with the Cryo-Platform. The NMR spectrum was recorded at three different ligand/protein ratios from 0 to 10. The samples were prepared by adding small amounts of a 50 mM ligand stock solution in DMSO to the protein solution (0.20 mL) of the PD-L1 fragment at a concentration of 0.14 mM. The acquisition parameters for each spectrum were as follows: size of FID32768, number of scans: 32. The spectra were visualized using TopSpin 4.0.2. (Bruker, Billerica, MA, USA)
# [3] = target: T3, PD-L1 in MDA-MB-231 cells (Homo sapiens, UniProt Q9NZQ7); assay: Western blot of PD-L1 expression in MDA-MB-231 cells; assay type: cell-based; details: MDA-MB-231 cells treated for 6 or 24 h
# T3 construct: host or cells: MDA-MB-231
# T3 sequence (Q9NZQ7 19-290): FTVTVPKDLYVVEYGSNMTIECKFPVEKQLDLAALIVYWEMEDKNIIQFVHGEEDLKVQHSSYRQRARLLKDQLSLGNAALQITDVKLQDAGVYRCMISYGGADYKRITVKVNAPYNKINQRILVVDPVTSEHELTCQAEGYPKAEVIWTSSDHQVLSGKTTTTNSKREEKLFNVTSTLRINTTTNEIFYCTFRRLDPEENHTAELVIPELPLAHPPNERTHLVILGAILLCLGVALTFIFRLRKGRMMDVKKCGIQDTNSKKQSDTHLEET
# Protocol: The cell lysates were prepared with a RIPA buffer (Sigma-Aldrich) containing Protease Inhibitor Cocktail (Sigma-Aldrich, St. Louis, MO, USA) and separated by 12% SDS-PAGE (TGX™ FastCast™ Acrylamide Kit, Bio-Rad, Hercules, CA, USA). The proteins were transferred to a PVDF membrane (Merck Millipore, Burlington, MA, USA) using a Mini Trans-Blot® Cell system (Bio-Rad, Hercules, CA, USA). The membranes were incubated with 4% (m/v) bovine serum albumin (BioShop, Burlington, Ontario, Canada) in a TBS buffer containing 0.1% (v/v) Nonidet P-40 (BioShop, Burlington, Ontario, Canada) at RT for 1 h. Then, the membranes were incubated with a specific primary antibody at 4 °C overnight. Following three washes in TBS-N, a secondary horseradish peroxidase (HRP)-conjugated antibody was applied for 1 h at RT. […]
# Figure 2 Bioactivity of the indicated compounds. (A,B) The activity was monitored with a cell-based immune checkpoint blockade (ICB) assay. […] The cells were co-cultured for 6 h and the luminescence signal was measured following the addition of the Bio-Glo substrate. The graphs show fold induction calculated versus either DMSO-treated (for small molecules) or untreated (for durvalumab) control (ctrl) cells. […]
inhibition at 0.5 µM [1] [%],inhibition at 5 µM [1] [%],IC50 [1] [nM],Protein precipitation during NMR titration [2],Binding to PD-L1 by 1H NMR titration [2],SMILES,Downregulation of PD-L1 expression (Western blot) [3]
18.2,88.8,1320 ± 40,not observed,bind to the PD-L1 protein,"COc1nc(OCc2cccc(-c3ccccc3)c2C)ccc1CNCC1CCN(CC(=O)Nc2cccc3c2C(=O)N(C2CCC(=O)NC2=O)C3=O)CC1 (stereo not drawn) [compound 4, N-(2-(2,6-dioxopiperidin-3-yl)-1,3-dioxoisoindolin-4-yl)-2-(4-((((2-methoxy-6-((2-methyl-[1,1′-biphenyl]-3-yl)methoxy)pyridin-3-yl)methyl)amino)methyl)piperidin-1-yl)acetamide]",not related to the downregulation of PD-L1 expression; also recorded: unrelated to the downregulation of PD-L1 expression
66.3,100,640 ± 20,not observed,bind to the PD-L1 protein,"COc1nc(OCc2cccc(-c3ccccc3)c2C)ccc1CNCCCNc1cccc2c1C(=O)N(C1CCC(=O)NC1=O)C2=O (stereo not drawn) [compound 5, 2-(2,6-dioxopiperidin-3-yl)-4-((3-(((2-methoxy-6-((2-methyl-[1,1′-biphenyl]-3-yl)methoxy)pyridin-3-yl)methyl)amino)propyl)amino)isoindoline-1,3-dione]",not related to the downregulation of PD-L1 expression; also recorded: unrelated to the downregulation of PD-L1 expression
